From ChEMBL document CHEMBL4020784, “Syntheses of prodrug-type phosphotriester oligonucleotides responsive to intracellular reducing environment for improvement of cell membrane permeability and nuclease resistance” (Bioorg Med Chem Lett, 2017)

Tests used:
[1] = Metabolic stability in 10% fetal bovine serum assessed as compound remaining at 37 degC by RP-HPLC method; assay type: ADME, cell-free, Bos taurus; details: cattle
[2] = Chemical stability in CD3CN up to 7 days by 31P NMR method; assay type: physicochemical; details: read-out: Stability

half-life [1] [h] | Structure (SMILES) | remaining at 168 h [2] [%]
< 1.5 | Cc1cn([C@H]2C[C@H](OP(=O)(O)OC[C@H]3O[C@@H](n4cc(C)c(=O)[nH]c4=O)C[C@@H]3OP(=O)(O)OC[C@H]3O[C@@H](n4cc(C)c(=O)[nH]c4=O)C[C@@H]3OP(=O)(O)OC[C@H]3O[C@@H](n4cc(C)c(=O)[nH]c4=O)C[C@@H]3OP(=O)(O)OC[C@H]3O[C@@H](n4cc(C)c(=O)[nH]c4=O)C[C@@H]3OP(=O)(O)OC[C@H]3O[C@@H](n4cc(C)c(=O)[nH]c4=O)C[C@@H]3OP(=O)(O)OC[C@H]3O[C@@H](n4cc(C)c(=O)[nH]c4=O)C[C@@H]3OP(=O)(O)OC[C@H]3O[C@@H](n4cc(C)c(=O)[nH]c4=O)C[C@@H]3OP(=O)(O)OC[C@H]3O[C@@H](n4cc(C)c(=O)[nH]c4=O)C[C@@H]3OP(=O)(O)OC[C@H]3O[C@@H](n4cc(C)c(=O)[nH]c4=O)C[C@@H]3O)[C@@H](CO)O2)c(=O)[nH]c1=O | –
> 23.3 | Cc1cn([C@H]2C[C@H](OP(=O)(O)OC[C@H]3O[C@@H](n4cc(C)c(=O)[nH]c4=O)C[C@@H]3OP(=O)(O)OC[C@H]3O[C@@H](n4cc(C)c(=O)[nH]c4=O)C[C@@H]3OP(=O)(O)OC[C@H]3O[C@@H](n4cc(C)c(=O)[nH]c4=O)C[C@@H]3OP(=O)(O)OC[C@H]3O[C@@H](n4cc(C)c(=O)[nH]c4=O)C[C@@H]3OP(=O)(O)OC[C@H]3O[C@@H](n4cc(C)c(=O)[nH]c4=O)C[C@@H]3OP(=O)(O)OC[C@H]3O[C@@H](n4cc(C)c(=O)[nH]c4=O)C[C@@H]3OP(=O)(O)OC[C@H]3O[C@@H](n4cc(C)c(=O)[nH]c4=O)C[C@@H]3OP(=O)(O)OC[C@H]3O[C@@H](n4cc(C)c(=O)[nH]c4=O)C[C@@H]3OP(=O)(OC[C@H]3O[C@@H](n4cc(C)c(=O)[nH]c4=O)C[C@@H]3O)O[C@@H]3CSSC[C@H]3OCc3ccccc3)[C@@H](CO)O2)c(=O)[nH]c1=O (stereo partly drawn) | –
– | COc1ccc(C(OC[C@H]2O[C@@H](n3cc(C)c(=O)[nH]c3=O)C[C@@H]2OP(OC2CSSCC2OCc2ccccc2)N(C(C)C)C(C)C)(c2ccccc2)c2ccc(OC)cc2)cc1 (stereo partly drawn) | 95
